According to US7091202B2, “4-arylspirocycloalkyl-2-aminopyrimidine carboxamide KCNQ potassium channel modulators” (Bristol-Myers Squibb Company, priority 2004, dated 2006):
pEC50: −log10 of the molar value.

Molecular target: T1, hQ23 (HEK-293 cell line stably transfected with one of the members of the KCNQ family) (Homo sapiens, UniProt O43525+O43526)
T1 construct: expressed in transfected cells; host or cells: HEK-293, stably transfected
Assay: Thallium flux assay for KCNQ channel blockers (FLIPR, BTC dye)
Type: cell-based
Conditions: hQ23 cells, thallium flux
Procedure, shortened: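 HEK-293 cells stably expressing a KCNQ member, loaded with BTC-AM (2 μM) in chloride-free buffer, pH 7.3; compounds added at 1% DMSO, then Tl2SO4 stimulus on FLIPR (488/540 nm, 60 s). Minimal active concentration set at ≥4 SD above negative control; IC50 from 10-point 1:3 series, single-site logistic fit versus the positive-control blocker.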

T1 sequence (O43526 whole entry): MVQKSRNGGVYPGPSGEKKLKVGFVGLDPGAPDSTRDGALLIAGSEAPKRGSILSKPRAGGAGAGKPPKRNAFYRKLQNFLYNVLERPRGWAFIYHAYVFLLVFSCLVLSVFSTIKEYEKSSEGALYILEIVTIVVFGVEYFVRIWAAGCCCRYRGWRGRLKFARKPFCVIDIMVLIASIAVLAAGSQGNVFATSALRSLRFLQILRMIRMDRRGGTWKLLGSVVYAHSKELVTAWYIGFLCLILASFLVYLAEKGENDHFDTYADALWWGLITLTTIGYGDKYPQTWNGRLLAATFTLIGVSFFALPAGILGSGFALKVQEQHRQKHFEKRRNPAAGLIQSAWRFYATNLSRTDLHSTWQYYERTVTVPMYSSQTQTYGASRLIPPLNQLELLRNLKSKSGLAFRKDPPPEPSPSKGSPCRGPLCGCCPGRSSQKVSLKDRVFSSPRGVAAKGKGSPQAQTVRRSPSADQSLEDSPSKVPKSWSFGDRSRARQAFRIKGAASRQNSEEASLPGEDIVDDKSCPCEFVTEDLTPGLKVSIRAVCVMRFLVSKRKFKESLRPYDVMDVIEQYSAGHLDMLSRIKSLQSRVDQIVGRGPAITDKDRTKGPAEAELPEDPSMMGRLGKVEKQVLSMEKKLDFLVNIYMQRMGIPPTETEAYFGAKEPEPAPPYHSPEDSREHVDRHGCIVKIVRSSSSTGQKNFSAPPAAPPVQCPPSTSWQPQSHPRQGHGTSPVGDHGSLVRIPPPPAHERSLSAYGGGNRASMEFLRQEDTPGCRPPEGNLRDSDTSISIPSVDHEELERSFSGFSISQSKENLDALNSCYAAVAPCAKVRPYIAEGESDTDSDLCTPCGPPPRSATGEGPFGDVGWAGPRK
T1 sequence (O43525 whole entry): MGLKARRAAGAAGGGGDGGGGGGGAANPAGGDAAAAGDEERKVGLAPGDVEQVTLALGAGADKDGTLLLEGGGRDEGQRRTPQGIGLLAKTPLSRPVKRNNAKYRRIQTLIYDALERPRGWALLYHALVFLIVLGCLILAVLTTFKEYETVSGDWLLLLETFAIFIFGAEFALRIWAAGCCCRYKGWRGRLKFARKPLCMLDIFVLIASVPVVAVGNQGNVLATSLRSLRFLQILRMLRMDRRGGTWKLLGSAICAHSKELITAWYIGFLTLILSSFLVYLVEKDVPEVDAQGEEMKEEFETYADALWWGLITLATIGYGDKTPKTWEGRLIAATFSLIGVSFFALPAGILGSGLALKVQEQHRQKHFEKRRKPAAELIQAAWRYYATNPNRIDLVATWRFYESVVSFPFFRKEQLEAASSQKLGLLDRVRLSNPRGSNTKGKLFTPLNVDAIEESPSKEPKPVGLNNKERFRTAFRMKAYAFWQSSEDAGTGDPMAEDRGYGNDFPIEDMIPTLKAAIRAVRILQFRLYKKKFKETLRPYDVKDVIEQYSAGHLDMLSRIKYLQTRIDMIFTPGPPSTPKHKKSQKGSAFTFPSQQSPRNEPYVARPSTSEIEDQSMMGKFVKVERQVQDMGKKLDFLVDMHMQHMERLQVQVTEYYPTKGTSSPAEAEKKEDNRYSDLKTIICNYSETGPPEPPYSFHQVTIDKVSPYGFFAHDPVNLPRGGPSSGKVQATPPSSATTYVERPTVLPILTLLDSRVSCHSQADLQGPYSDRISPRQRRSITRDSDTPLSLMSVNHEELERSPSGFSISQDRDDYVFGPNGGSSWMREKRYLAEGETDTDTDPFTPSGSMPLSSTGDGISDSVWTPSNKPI

Row | pEC50 | Structure (SMILES)
1 | 7.80 | CC1CCC(Nc2ncc(C(=O)NCc3cccc4ccccc34)c(C3(c4ccc(Cl)cc4)CCCC3)n2)CC1 (centres unmarked) [Example 166, 5-pyrimidinecarboxamide, 4-[1-(4-chlorophenyl)cyclopentyl]-2-[(4-methylcyclohexyl)amino]-N-(1-naphthalenylmethyl)-]
2 | 8.00 | CC1CCCN(c2ncc(C(=O)NCc3cccc4ccccc34)c(C3(c4ccc(Cl)cc4)CCCC3)n2)C1 (centres unmarked) [Example 169, 5-pyrimidinecarboxamide, 4-[1-(4-chlorophenyl)cyclopentyl]-2-(3-methyl-1-piperidinyl)-N-(1-naphthalenylmethyl)-]
3 | 6.43 | O=C(NCc1cccc2ccccc12)c1cnc(NC2CCCC2)nc1C1(c2ccc(Cl)cc2)CCCC1 [Example 172, 5-pyrimidinecarboxamide, 4-[1-(4-chlorophenyl)cyclopentyl]-2-(cyclopentylamino)-N-(1-naphthalenylmethyl)-]
4 | 6.09 | CN1CCN(c2ncc(C(=O)NCc3ccc(Cl)c(Cl)c3)c(C3(c4ccc(Cl)cc4)CCCC3)n2)CC1 [Example 173, 5-pyrimidinecarboxamide, 4-[1-(4-chlorophenyl)cyclopentyl]-N-[(3,4-dichlorophenyl)methyl]-2-(4-methyl-1-piperazinyl)-]
5 | 8.00 | CC1CCCN(c2ncc(C(=O)NCc3ccc(Cl)c(Cl)c3)c(C3(c4ccc(Cl)cc4)CCCC3)n2)C1 (centres unmarked) [Example 174, 5-pyrimidinecarboxamide, 4-[1-(4-chlorophenyl)cyclopentyl]-N-[(3,4-dichlorophenyl)methyl]-2-(3-methyl-1-piperidinyl)-]
6 | 8.00 | CC1CCN(c2ncc(C(=O)NCc3ccc(Cl)c(Cl)c3)c(C3(c4ccc(Cl)cc4)CCCC3)n2)CC1 [Example 175, 5-pyrimidinecarboxamide, 4-[1-(4-chlorophenyl)cyclopentyl]-N-[(3,4-dichlorophenyl)methyl]-2-(4-methyl-1-piperidinyl)-]
7 | 6.71 | O=C(NCc1ccc(Cl)cc1Cl)c1cnc(NC2CC2)nc1C1(c2ccc(Cl)cc2)CCCC1 [Example 176, 5-pyrimidinecarboxamide, 4-[1-(4-chlorophenyl)cyclopentyl]-2-(cyclopropylamino)-N-[(2,4-dichlorophenyl)methyl]-]
8 | 7.26 | CC1CCC(Nc2ncc(C(=O)NCc3ccc(Cl)cc3Cl)c(C3(c4ccc(Cl)cc4)CCCC3)n2)CC1 (centres unmarked) [Example 177, 5-pyrimidinecarboxamide, 4-[1-(4-chlorophenyl)cyclopentyl]-N-[(2,4-dichlorophenyl)methyl]-2-[(4-methylcyclohexyl)amino]-]
9 | 7.13 | O=C(NCc1ccc(Cl)cc1Cl)c1cnc(N2CCCC2)nc1C1(c2ccc(Cl)cc2)CCCC1 [Example 178, 5-pyrimidinecarboxamide, 4-[1-(4-chlorophenyl)cyclopentyl]-N-[(2,4-dichlorophenyl)methyl]-2-(1-pyrrolidinyl)-]
10 | 6.15 | CN(C)CCNc1ncc(C(=O)NCc2ccc(Cl)cc2Cl)c(C2(c3ccc(Cl)cc3)CCCC2)n1 [Example 184, 5-pyrimidinecarboxamide, 4-[1-(4-chlorophenyl)cyclopentyl]-N-[(2,4-dichlorophenyl)methyl]-2-[[2-(dimethylamino)ethyl]amino]-]
11 | 8.00 | O=C(NCc1ccc(Cl)cc1Cl)c1cnc(NC2CCCC2)nc1C1(c2ccc(Cl)cc2)CCCC1 [Example 185, 5-pyrimidinecarboxamide, 4-[1-(4-chlorophenyl)cyclopentyl]-2-(cyclopentylamino)-N-[(2,4-dichlorophenyl)methyl]-]

Continued, molecule first:

Row | Structure (SMILES) | pEC50
12 | CC(NC(=O)c1cnc(NCCN(C)C)nc1C1(c2ccc(Cl)cc2)CCCC1)c1cccc2ccccc12 (centres unmarked) [Example 163, 5-pyrimidinecarboxamide, 4-[1-(4-chlorophenyl)cyclopentyl]-2-[[2-(dimethylamino)ethyl]amino]-N-[1-(1-naphthalenyl)ethyl]-] | 6.15
13 | CC(NC(=O)c1cnc(NC2CCCC2)nc1C1(c2ccc(Cl)cc2)CCCC1)c1cccc2ccccc12 (centres unmarked) [Example 164, 5-pyrimidinecarboxamide, 4-[1-(4-chlorophenyl)cyclopentyl]-2-(cyclopentylamino)-N-[1-(1-naphthalenyl)ethyl]-] | 8.00
14 | O=C(NCc1cccc2ccccc12)c1cnc(NC2CC2)nc1C1(c2ccc(Cl)cc2)CCCC1 [Example 165, 5-pyrimidinecarboxamide, 4-[1-(4-chlorophenyl)cyclopentyl]-2-(cyclopropylamino)-N-(1-naphthalenylmethyl)-] | 6.20
15 | O=C(NCc1cccc2ccccc12)c1cnc(N2CCCC2)nc1C1(c2ccc(Cl)cc2)CCCC1 [Example 167, 5-pyrimidinecarboxamide, 4-[1-(4-chlorophenyl)cyclopentyl]-N-(1-naphthalenylmethyl)-2-(1-pyrrolidinyl)-] | 6.85
16 | CN1CCN(c2ncc(C(=O)NCc3cccc4ccccc34)c(C3(c4ccc(Cl)cc4)CCCC3)n2)CC1 [Example 168, 5-pyrimidinecarboxamide, 4-[1-(4-chlorophenyl)cyclopentyl]-2-(4-methyl-1-piperazinyl)-N-(1-naphthalenylmethyl)-] | 6.30
17 | CC1CCN(c2ncc(C(=O)NCc3cccc4ccccc34)c(C3(c4ccc(Cl)cc4)CCCC3)n2)CC1 [Example 170, 5-pyrimidinecarboxamide, 4-[1-(4-chlorophenyl)cyclopentyl]-2-(4-methyl-1-piperidinyl)-N-(1-naphthalenylmethyl)-] | 8.00
18 | CCC(C)Nc1ncc(C(=O)NCc2cccc3ccccc23)c(C2(c3ccc(Cl)cc3)CCCC2)n1 (centres unmarked) [Example 171, 5-pyrimidinecarboxamide, 4-[1-(4-chlorophenyl)cyclopentyl]-2-[(1-methylpropyl)amino]-N-(1-naphthalenylmethyl)-] | 6.80
19 | CN1CCN(c2ncc(C(=O)NCc3ccc(Cl)cc3Cl)c(C3(c4ccc(Cl)cc4)CCCC3)n2)CC1 [Example 179, 5-pyrimidinecarboxamide, 4-[1-(4-chlorophenyl)cyclopentyl]-N-[(2,4-dichlorophenyl)methyl]-2-(4-methyl-1-piperazinyl)-] | 6.27
20 | CC1CCCN(c2ncc(C(=O)NCc3ccc(Cl)cc3Cl)c(C3(c4ccc(Cl)cc4)CCCC3)n2)C1 (centres unmarked) [Example 180, 5-pyrimidinecarboxamide, 4-[1-(4-chlorophenyl)cyclopentyl]-N-[(2,4-dichlorophenyl)methyl]-2-(3-methyl-1-piperidinyl)-] | 8.00
21 | CN1CCC(N(C)c2ncc(C(=O)NCc3ccc(Cl)cc3Cl)c(C3(c4ccc(Cl)cc4)CCCC3)n2)CC1 [Example 182, 5-pyrimidinecarboxamide, 4-[1-(4-chlorophenyl)cyclopentyl]-N-[(2,4-dichlorophenyl)methyl]-2-[methyl(1-methyl-4-piperidinyl)amino]-] | 7.17
22 | CCC(C)Nc1ncc(C(=O)NCc2ccc(Cl)cc2Cl)c(C2(c3ccc(Cl)cc3)CCCC2)n1 (centres unmarked) [Example 183, 5-pyrimidinecarboxamide, 4-[1-(4-chlorophenyl)cyclopentyl]-N-[(2,4-dichlorophenyl)methyl]-2-[(1-methylpropyl)amino]-] | 8.00
23 | CC1CCC(Nc2ncc(C(=O)NCc3ccc(F)cc3F)c(C3(c4ccc(Cl)cc4)CCCC3)n2)CC1 (centres unmarked) [Example 186, 5-pyrimidinecarboxamide, 4-[1-(4-chlorophenyl)cyclopentyl]-N-[(2,4-difluorophenyl)methyl]-2-[(4-methylcyclohexyl)amino]-] | 6.89
